In publication PMC5628445, “Four terpene synthases contribute to the generation of chemotypes in tea tree (Melaleuca alternifolia)” (BMC Plant Biology, 2017):

Assays:
Assay in all cases: radiometric assay, pentane extraction and scintillation counting; Lineweaver-Burk
Format in all cases: biochemical, Melaleuca alternifolia
[1] = tested on: T1, MaTPS-Tln (terpinolene synthase); conditions: 0.25 mM manganese; 30 °C; 15 min; 3H-GPP up to 100 μM; crude E. coli extract; labelled compound
T1 construct: vector pASK-IBA7; expressed in E. coli, crude extract
Text: radiometric assay, pentane extraction and scintillation counting; Lineweaver-Burk on MaTPS-Tln (terpinolene synthase)

[2] = tested on: T2, MaTPS-Cin (1,8-cineole synthase); MaTPS-CinA; conditions: 0.25 mM manganese; 30 °C; 10 min; 1–30 μM 3H-GPP; crude E. coli extract; labelled compound
T2 construct: vector pASK-IBA7; expressed in E. coli, crude extract
Text: radiometric assay, pentane extraction and scintillation counting; Lineweaver-Burk on MaTPS-Cin (1,8-cineole synthase); MaTPS-CinA

[3] = tested on: T3, MaTPS-SaH (sabinene hydrate synthase); conditions: 0.25 mM manganese; 30 °C; 15 min; 1–30 μM 3H-GPP; crude E. coli extract; labelled compound
T3 construct: vector pASK-IBA7; expressed in E. coli, crude extract
Text: radiometric assay, pentane extraction and scintillation counting; Lineweaver-Burk on MaTPS-SaH (sabinene hydrate synthase)

CC(C)=CCC/C(C)=C/COP(=O)(O)OP(=O)(O)O [GPP]
Km [1]: 21 ± 3.18 µM | Km [2]: 31 ± 6.26 µM | Km [3]: 11 ± 2 µM
